5 compounds from PMC8699473, “An Easily Expandable Multi-Drug LC-MS Assay for the Simultaneous Quantification of 57 Oral Antitumor Drugs in Human Plasma” (Cancers, 2021) can be followed below.

SMILES strings stand for the structures.

The data set can be described thus: Short-term stability in spiked pooled human plasma (bench-top, 4 °C, 56 °C).

Consider `Cc1ccc(Nc2nccc(N(C)c3ccc4c(C)n(C)nc4c3)n2)cc1S(N)(=O)=O` [Pazopanib], for which the “Short-time stability (24h, 4°C, without daylight) Accuracy [%]” value reads like this: (validation standard 2xLLOV) 101.2%; (validation standard LLOV) 104.1%; (validation standard MOV) 97.8%; (validation standard ULOV) 97.1%. Moreover, the “Short-time stability (24h, RT, with daylight) Accuracy [%]” value runs as follows: (validation standard 2xLLOV) 103.3%; (validation standard LLOV) 100.2%; (validation standard MOV) 99.1%; (validation standard ULOV) 102.6%. The “Short-time stability (24h, RT, without daylight) Accuracy [%]” value amounted to 104.3% (validation standard 2xLLOV), 105.8% (validation standard LLOV), 101.2% (validation standard MOV) and 99.1% (validation standard ULOV).
Turning to `COc1cc2nccc(Oc3ccc(NC(=O)NC4CC4)c(Cl)c3)c2cc1C(N)=O` [Lenvatinib], for the setting “validation standard 2xLLOV”, the “Short-time stability (1h, 56°C) Accuracy [%]” value is 56.5%; the “Short-time stability (24h, 4°C, without daylight) Accuracy [%]” value came to 103.4%; the “Short-time stability (24h, RT, with daylight) Accuracy [%]” value is listed as 96.8%; the “Short-time stability (24h, RT, without daylight) Accuracy [%]” value was 94.6%. Where the note is “validation standard LLOV”, the “Short-time stability (1h, 56°C) Accuracy [%]” value turned out to be 62.9%; the “Short-time stability (24h, 4°C, without daylight) Accuracy [%]” value is on record as 114.0%; the “Short-time stability (24h, RT, with daylight) Accuracy [%]” value turned out to be 106.4%; the “Short-time stability (24h, RT, without daylight) Accuracy [%]” value was 110.0%. Also, under “validation standard MOV”, the “Short-time stability (1h, 56°C) Accuracy [%]” value was 46.6%; the “Short-time stability (24h, 4°C, without daylight) Accuracy [%]” value is 95.9%; the “Short-time stability (24h, RT, with daylight) Accuracy [%]” value is 93.9%; the “Short-time stability (24h, RT, without daylight) Accuracy [%]” value is reported as 94.3%. Further, where the note is “validation standard ULOV”, the “Short-time stability (1h, 56°C) Accuracy [%]” value is 40.6%; the “Short-time stability (24h, 4°C, without daylight) Accuracy [%]” value came out at 100.4%; the “Short-time stability (24h, RT, with daylight) Accuracy [%]” value is listed as 102.7%; the “Short-time stability (24h, RT, without daylight) Accuracy [%]” value is listed as 97.9%.
As to `Nc1cccc2c1CN(C1CCC(=O)NC1=O)C2=O` (centres unmarked) [Lenalidomide], for the setting “validation standard 2xLLOV”, the “Short-time stability (1h, 56°C) Accuracy [%]” value stood at 39.6%; the “Short-time stability (24h, 4°C, without daylight) Accuracy [%]” value stood at 107.4%; the “Short-time stability (24h, RT, with daylight) Accuracy [%]” value is 54.9%; the “Short-time stability (24h, RT, without daylight) Accuracy [%]” value stood at 49.6%. For the same compound, where the note is “validation standard LLOV”, the “Short-time stability (24h, 4°C, without daylight) Accuracy [%]” value was determined as 83.0% and the “Short-time stability (24h, RT, with daylight) Accuracy [%]” value is on record as 81.5%. For the setting “validation standard MOV”, the “Short-time stability (1h, 56°C) Accuracy [%]” value is recorded as 20.6%; the “Short-time stability (24h, 4°C, without daylight) Accuracy [%]” value is recorded as 97.8%; the “Short-time stability (24h, RT, with daylight) Accuracy [%]” value was 58.7%; the “Short-time stability (24h, RT, without daylight) Accuracy [%]” value was determined as 54.1%. For the setting “validation standard ULOV”, the “Short-time stability (1h, 56°C) Accuracy [%]” value was 18.5%; the “Short-time stability (24h, 4°C, without daylight) Accuracy [%]” value was found to be 90.4%; the “Short-time stability (24h, RT, with daylight) Accuracy [%]” value is given as 51.9%; the “Short-time stability (24h, RT, without daylight) Accuracy [%]” value was 50.9%.
With `CO[C@@H]1[C@H](N(C)C(=O)c2ccccc2)C[C@H]2O[C@]1(C)n1c3ccccc3c3c4c(c5c6ccccc6n2c5c31)C(=O)NC4` [Midostaurin], for the setting “validation standard 2xLLOV”, the “Short-time stability (1h, 56°C) Accuracy [%]” value is given as 45.3%; the “Short-time stability (24h, 4°C, without daylight) Accuracy [%]” value is listed as 93.5%; the “Short-time stability (24h, RT, with daylight) Accuracy [%]” value is on record as 91.7%; the “Short-time stability (24h, RT, without daylight) Accuracy [%]” value was 88.1%. In addition, for the setting “validation standard LLOV”, the “Short-time stability (1h, 56°C) Accuracy [%]” value worked out at 39.0%; the “Short-time stability (24h, 4°C, without daylight) Accuracy [%]” value is reported as 90.3%; the “Short-time stability (24h, RT, with daylight) Accuracy [%]” value came out at 89.5%; the “Short-time stability (24h, RT, without daylight) Accuracy [%]” value was found to be 85.7%. In addition, where the note is “validation standard MOV”, the “Short-time stability (1h, 56°C) Accuracy [%]” value is given as 41.7%; the “Short-time stability (24h, 4°C, without daylight) Accuracy [%]” value came out at 103.7%; the “Short-time stability (24h, RT, with daylight) Accuracy [%]” value amounted to 88.3%; the “Short-time stability (24h, RT, without daylight) Accuracy [%]” value was determined as 91.0%. In addition, for the setting “validation standard ULOV”, the “Short-time stability (1h, 56°C) Accuracy [%]” value is 37.7%; the “Short-time stability (24h, 4°C, without daylight) Accuracy [%]” value is listed as 98.8%; the “Short-time stability (24h, RT, with daylight) Accuracy [%]” value was 89.5%; the “Short-time stability (24h, RT, without daylight) Accuracy [%]” value is given as 88.4%.
Regarding `O=c1[nH]c(=O)n([C@H]2C[C@H](O)[C@@H](CO)O2)cc1C(F)(F)F` [Trifluridine], for the setting “validation standard 2xLLOV”, the “Short-time stability (1h, 56°C) Accuracy [%]” value is on record as -6.6%; the “Short-time stability (24h, 4°C, without daylight) Accuracy [%]” value was 103.5%; the “Short-time stability (24h, RT, with daylight) Accuracy [%]” value is given as 72.7%; the “Short-time stability (24h, RT, without daylight) Accuracy [%]” value is recorded as 76.2%. For the same compound, for the setting “validation standard LLOV”, the “Short-time stability (1h, 56°C) Accuracy [%]” value is on record as -89.2%; the “Short-time stability (24h, 4°C, without daylight) Accuracy [%]” value stood at 83.6%; the “Short-time stability (24h, RT, with daylight) Accuracy [%]” value is given as 45.6%; the “Short-time stability (24h, RT, without daylight) Accuracy [%]” value is recorded as 36.1%. Where the note is “validation standard MOV”, the “Short-time stability (1h, 56°C) Accuracy [%]” value was 28.1%; the “Short-time stability (24h, 4°C, without daylight) Accuracy [%]” value was 96.3%; the “Short-time stability (24h, RT, with daylight) Accuracy [%]” value turned out to be 78.0%; the “Short-time stability (24h, RT, without daylight) Accuracy [%]” value stood at 75.3%. Also, for the setting “validation standard ULOV”, the “Short-time stability (1h, 56°C) Accuracy [%]” value was found to be 23.2%; the “Short-time stability (24h, 4°C, without daylight) Accuracy [%]” value is 85.5%; the “Short-time stability (24h, RT, with daylight) Accuracy [%]” value was 66.9%; the “Short-time stability (24h, RT, without daylight) Accuracy [%]” value was 67.3%.
